According to US10874739B2, “Near-IR light-cleavable conjugates and conjugate precursors” (The United States of America, as represented by the …, priority 2016, dated 2020):

How the values were obtained:
[1] = system: MDA-MB-468 (EGFR+); assay: Near-IR light-dependent growth inhibition, MTT, pre-incubation assay (media exchanged prior to photolysis); format: cell-based, human; details: ±hν
Experimental: (§1) MDA-MB-468 (EGFR overexpression) and MCF-7 (normal EGFR expression) human breast cancer cell lines were obtained from the NCI DTP, DCTD Tumor Repository. MDA-MB-468 was cultured in RPMI supplemented with 2 mM L-glutamine, 11 mM D-glucose, 24 mM sodium bicarbonate, 10% heat-inactivated fetal bovine serum, 100 units/mL penicillin, 100 μg/mL streptomycin, and 0.25 μg/mL amphotericin B. MCF-7 was cultured in DMEM supplemented with 4 mM L-glutamine, 25 mM D-glucose, 44 mM sodium bicarbonate, 10% heat-inactivated fetal bovine serum, 100 units/mL penicillin, 100 μg/mL streptomycin, and 0.25 μg/mL amphotericin B. Both cell lines were grown at 37° C. in an atmosphere of 20% O2 and 5% CO2. Stock cultures were maintained in continuously exponential growth by weekly passage of the appropriate number of cells following trypsinization with 0.25% Trypsin-EDTA (0.9 mM) in PBS.
(§2) MDA-MB-468 or MCF-7 cells were seeded into 96-well plates (5×10^4 cells/well) and allowed to adhere overnight. […] Irradiation times may be calculated according to the following formula:
(§3) [formula] […] Media was removed, 100 μL of DMSO added to each well to solubilize MTT formazan, and absorbance at 550 nm was recorded using a microplate reader. Drug effects were expressed as % cell viability relative to the DMSO (no inhibitor) control. […]

[2] = system: MCF-7 (EGFR−); assay: as above; format: cell-based, human; details: ±hν
Experimental: as §1, §2, §3

CN(C)CCOc1ccc2[nH]c(C(=O)N3C[C@@H](CCl)c4c3cc(O)c3ccccc43)cc2c1 [DuoDM, duocarmycin DM, reference compound]
IC50 [1]: 0.007 ± 0.0006 nM | IC50 [2]: 0.0133 ± 0.0011 nM
